Assay results from article PMC9275698, “Morindone from Morinda citrifolia as a potential antiproliferative agent against colorectal cancer cell lines” (PLoS ONE, 2022).
Counter-ions that a name gives are not always drawn.

What was measured:
[1] = system: HCT116 cells; test: MTT cell cytotoxicity assay, HCT116; type: cell-based, human; details: for IC50: MTT, 72 hours, mean ± SD; for Selectivity index (SI) HCT116: IC50 in normal cells (CCD841 CoN) / IC50 in HCT116
Experimental: (§1) Three human colorectal cancer cell lines: HT29 cells (colorectal adenocarcinoma with p53 and APC mutation), LS174T cells (colorectal adenocarcinoma with KRAS mutation) and HCT116 cells (colorectal carcinoma with KRAS mutation) as well as normal colon, CCD841 CoN cells were obtained from American Type Cell Culture (Manassas, VA, USA). All cell lines were cultured in an incubator under the condition of 37°C temperature, humidified 5% CO2 air atmosphere. Cells were maintained in Dulbecco’s Modified Eagle Medium (DMEM) (Corning, NY, USA), supplemented with 10% Fetal Bovine Serum (FBS) (Sigma-Aldrich, St Louis, MO, USA), 25mM HEPES (Sangon Biotech, Shanghai, China) and 1% Penicillin/Streptomycin (Merck, Germany).
(§2) HCT116 wells were seeded at 7,500 cells/well while other cells were seeded at 30,000 cells/well in 96 well plates and allowed for 24 hours incubation. Cells were then treated with anthraquinone compounds at series of 2-fold dilution concentrations (50μM, 25μM, 12.5μM, 6.25μM, 3.12μM, 1.56μM, 0.78μM, 0.39μM) for 72 hours. 5-fluorouracil and DOX were used as positive controls in the treatment. Cell cytotoxicity was measured using the MTT Cell Count kit according to the manufacturer’s protocol. Assay was performed in triplicates and repeated in three individual experiments. The absorbance (A) was measured with microplate reader at 570nm wavelength and normalized to control. The half-maximal inhibitory concentration (IC50) value was determined using GraphPad Prism 8 software (GraphPad Software, Inc., CA, USA). Cell viability was calculated as follows: […]

[2] = system: LS174T cells; test: MTT cell cytotoxicity assay, LS174T; type: cell-based, human; details: for IC50: Homo sapiens, LS174T, MTT, 72 hours, mean ± SD; for Selectivity index (SI) LS174T: IC50 in normal cells (CCD841 CoN) / IC50 in LS174T
Experimental: as §1, §2

[3] = system: HT29 cells; test: MTT cell cytotoxicity assay, HT29; type: cell-based, human; details: for IC50: Homo sapiens, HT-29, MTT, 72 hours, mean ± SD; for Selectivity index (SI) HT29: IC50 in normal cells (CCD841 CoN) / IC50 in HT29
Experimental: as §1, §2

[4] = system: CCD841 CoN cells; test: MTT cell cytotoxicity assay, normal colon cells; type: cell-based; details: Homo sapiens, CCD-841CoN, 72 hours
Experimental: as §1, §2

[5] = system: C. lipolytica; design: method as in PMID 21214480; details: cited from earlier work
[6] = system: oxacillin-resistant Staphylococcus aureus; design: method as in PMID 20521552; details: cited from earlier work
[7] = system: HepG2 cells (hepatocellular carcinoma); details: cited from earlier work
[8] = system: MCF-7 cells (breast cancer); details: cited from earlier work
[9] = system: HCT116 cells (colorectal cancer); details: cited from earlier work

Cc1c(O)cc2c(c1O)C(=O)c1ccccc1C2=O [Rubiadin (6), Rubiadin]
IC50 ([1]; Homo sapiens, HCT-116, 72 h): > 50 µM | IC50 [2]: > 50 µM | IC50 [3]: > 50 µM | IC50 [4]: > 50 µM

O=Cc1c(O)cc2c(c1O)C(=O)c1ccccc1C2=O [Nordamnacanthal (1), Nordamnacanthal]
IC50 ([1]; Homo sapiens, HCT-116, 72 h): > 50 µM | Selectivity index (SI) HCT116 [1]: 0.97 | IC50 [2]: > 50 µM | Selectivity index (SI) LS174T [2]: 4.79 | IC50 [3]: > 50 µM | Selectivity index (SI) HT29 [3]: 0.42 | IC50 [4]: > 50 µM | melting point: 219 to 222 °C

Cc1ccc2c(c1O)C(=O)c1ccc(O)c(O)c1C2=O [Morindone (4), Morindone]
Selectivity index (SI) HCT116 [1]: 76.25 | IC50 [1]: 10.7 ± 0.04 µM | IC50 ([1]; listed as morindone): < 25 µM | IC50 [2]: 20.45 ± 0.03 µM | Selectivity index (SI) LS174T [2]: 39.89 | Antimicrobial activity against C. lipolytica [5]: strong antimicrobial activity | Antimicrobial activity against oxacillin-resistant Staphylococcus aureus [6]: strong antimicrobial activity | IC50 [3]: 19.2 ± 0.05 µM | Selectivity index (SI) HT29 [3]: 42.49 | IC50 [4]: > 50 µM

COc1c(C=O)c(O)cc2c1C(=O)c1ccccc1C2=O [Damnacanthal (2), Damnacanthal]
Selectivity index (SI) HCT116 [1]: 951.60 | IC50 [1]: 0.74 ± 0.06 µM | IC50 ([1]; listed as damnacanthal): < 25 µM | Anticancer and antitumor activities towards HepG2 cells [7]: Good anticancer and antitumor activities | IC50 [2]: > 50 µM | Selectivity index (SI) LS174T [2]: 0.28 | IC50 [3]: 28.17 ± 0.08 µM | Selectivity index (SI) HT29 [3]: 24.85 | IC50 [4]: > 50 µM | Anticancer and antitumor activities towards MCF-7 cells [8]: Good anticancer and antitumor activities | Anticancer and antitumor activities towards HCT116 cells [9]: Good anticancer and antitumor activities

O=c1[nH]cc(F)c(=O)[nH]1 [5-Fluorouracil, 5-fluorouracil, reference compound]
IC50 ([1]; Homo sapiens, HCT-116, 72 h): 5 ± 0.04 µM | IC50 [2]: 4.16 ± 0.02 µM | IC50 [3]: 0.2 ± 0.05 µM

COc1cccc2c1C(=O)c1c(O)c3c(c(O)c1C2=O)C[C@@](O)(C(=O)CO)C[C@@H]3O[C@H]1C[C@H](N)[C@H](O)[C@H](C)O1 [Doxorubicin hydrochloride, doxorubicin hydrochloride, reference compound]
IC50 ([1]; Homo sapiens, HCT-116, 72 h): 0.17 ± 0.04 µM | IC50 [2]: 2.27 ± 0.04 µM | IC50 [3]: 0.3 ± 0.06 µM

COc1c(O)cc2c(c1O)C(=O)c1ccc(C)c(O)c1C2=O [1,3,5-trihydoxy-2-methoxy-6-methyl anthraquinone]
IC50 ([1]; Homo sapiens, HCT-116, 72 h): < 25 µM | Selectivity index (SI) HCT116 [1]: 4.55 | IC50 [1]: 24.57 ± 0.07 µM | IC50 [2]: > 50 µM | Selectivity index (SI) LS174T [2]: 0.97 | IC50 [3]: > 50 µM | Selectivity index (SI) HT29 [3]: 0.03 | IC50 [4]: > 50 µM | melting point: 235 to 239 °C

Cc1ccc2c(c1O)C(=O)c1ccc(O)cc1C2=O [Sorendidiol (5), Sorendidiol]
IC50 ([1]; Homo sapiens, HCT-116, 72 h): > 50 µM | Selectivity index (SI) HCT116 [1]: 7.10 | IC50 [2]: > 50 µM | IC50 [3]: 27.17 ± 0.07 µM | Selectivity index (SI) HT29 [3]: 29.19 | IC50 [4]: > 50 µM

COc1c(CO)c(O)cc2c1C(=O)c1ccccc1C2=O [Damnacanthol (7), Damnacanthol]
IC50 ([1]; Homo sapiens, HCT-116, 72 h): < 25 µM | IC50 [1]: 18.47 ± 0.02 µM | IC50 [2]: > 50 µM | Selectivity index (SI) LS174T [2]: 0.59 | IC50 [3]: > 50 µM | Selectivity index (SI) HT29 [3]: 1.46 | IC50 [4]: > 50 µM | melting point: 156 to 158 °C

COCc1c(O)cc2c(c1O)C(=O)c1ccccc1C2=O [Lucidin-ω-methylether (8), Lucidin-ω-methylether]
IC50 ([1]; Homo sapiens, HCT-116, 72 h): < 25 µM | IC50 [1]: 14.88 ± 0.01 µM | IC50 [2]: > 50 µM | IC50 [3]: > 50 µM | IC50 [4]: > 50 µM | melting point: 170 to 173 °C
